Some test systems named below: HCT-116; HCT-15; HOP-62; HT-29; Hs-578T; K562; MCF7; MDA-MB-435; NCI-H460; NCI/ADR-RES; OVCAR-5; OVCAR-8; PC-3; SF-539; SK-MEL-5; SK-OV-3; SN12C; SNB-19; SW-620; UACC-62.
Common to all, as to experiment: DTP human tumour cell line panel, 48 h

Here are results for seven compounds from ChEMBL document CHEMBL1201862, “PubChem BioAssay data set” (2004).

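Five compound concentrations were applied to cells in 96-well plates for 48 hours; endpoints were derived by simple linear interpolation of the resulting dose-response curve. GI50: concentration for 50% inhibition of growth.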 Calls of active or inactive are those of the source. Rule as the data show it: active = GI50 up to about 1.1 µM and inactive = higher.

On to `CCN(CC)CCn1c(=O)c2ccccc2n2c3c(=O)n(C)c(=O)n(C)c3nc12`, for which the GI50 (in general, the concentration at which growth is held to half of that of the control) is 1.55 µM (inactive) with HCT-116; 15.4 µM with HCT-15; 0.718 µM (active) with HOP-62; 2.2 µM (inactive) in the test with HT-29; 2.01 µM (inactive) with Hs-578T; 2.21 µM (inactive) in the test with K562. Also, the GI50 in the test with MCF7 was 0.337 µM (active); in the test with MDA-MB-435, 4.71 µM (inactive); in the test with NCI-H460, 0.148 µM (active); in the test on NCI/ADR-RES, 3.33 µM (inactive); in the test on OVCAR-5 it was 2.53 µM (inactive); with OVCAR-8 it was 1.84 µM (inactive). For the same compound, the GI50 was 2.38 µM (inactive) in the test on PC-3; 0.968 µM (active) in the test with SF-539; 1.17 µM (inactive) in the test on SK-MEL-5; 1.37 µM (inactive) with SK-OV-3; 1.53 µM (inactive) with SN12C; 2.38 µM (inactive) in the test on SNB-19. The GI50 in the test with SW-620 is 1.22 µM (inactive); in the test on UACC-62, 0.762 µM (active).
`C1CCCCC2(CCCCCCCCC3(CCC1)OCCO3)OCCO2`: the GI50 in the test on HCT-116 is > 100 µM (inactive); in the test on HCT-15, over 100 µM; in the test with HOP-62, > 100 µM (inactive); in the test with HT-29, > 100 µM (inactive); in the test on Hs-578T, > 100 µM (inactive); in the test on K562 it was > 100 µM (inactive). Also, the GI50 in the test with MCF7, in the test with MDA-MB-435, with NCI-H460, in the test with NCI/ADR-RES, in the test with OVCAR-5 and in the test on OVCAR-8 was > 100 µM (inactive) in each case. Further, the GI50 with PC-3, with SF-539, in the test with SK-MEL-5, with SK-OV-3, in the test with SN12C and in the test with SNB-19 was > 100 µM (inactive) throughout. The GI50 with SW-620 and in the test on UACC-62 was > 100 µM (inactive) each time.
For `Cc1ccc(N)c(S)c1`, the GI50 is 32.1 µM (inactive) in the test on HCT-116; 16.7 µM with HCT-15; 21.5 µM (inactive) with HOP-62; 19.4 µM (inactive) with HT-29; 38 µM (inactive) in the test on Hs-578T; 28.6 µM (inactive) with K562. The GI50 was 18.5 µM (inactive) with MCF7; 19 µM (inactive) in the test with MDA-MB-435; 22 µM (inactive) in the test with NCI-H460; 24 µM (inactive) in the test with NCI/ADR-RES; 22.3 µM (inactive) in the test with OVCAR-5; 17.1 µM (inactive) in the test with OVCAR-8. Besides, the GI50 was 15.3 µM (inactive) in the test with PC-3; 17.5 µM (inactive) with SF-539; 16.5 µM (inactive) in the test on SK-MEL-5; 27.9 µM (inactive) in the test with SK-OV-3; 1.7 µM (inactive) with SN12C; 21.1 µM (inactive) with SNB-19. Besides, the GI50 in the test with SW-620 and with UACC-62 was 17.6 µM (inactive) each time.
With `COP(=O)(OC)C(C)(C)NC(=O)NC(F)(F)F`, the GI50 with HCT-116 is > 100 µM (inactive); with HCT-15, over 100 µM; in the test with HOP-62 it was > 100 µM (inactive); with HT-29 it was > 100 µM (inactive); with Hs-578T, 31.1 µM (inactive); in the test with K562, > 100 µM (inactive). For the same compound, the GI50 in the test on MCF7, in the test with MDA-MB-435, in the test on NCI-H460, in the test with NCI/ADR-RES, in the test on OVCAR-5 and in the test with OVCAR-8 was > 100 µM (inactive) in each case. Besides, the GI50 in the test on PC-3 was > 100 µM (inactive); with SF-539, > 100 µM (inactive); in the test on SK-MEL-5, > 100 µM (inactive); in the test with SK-OV-3, > 100 µM (inactive); in the test on SN12C it was > 100 µM (inactive); in the test with SNB-19, 70.1 µM (inactive). Further, the GI50 in the test with SW-620 and with UACC-62 was > 100 µM (inactive) in each case.
Consider `Cc1cc(N2CCCCC2)nc2ccc(Cc3ccc4nc(N5CCCCC5)cc(C)c4c3)cc12`, for which the GI50 with HCT-116 is 98.9 µM (inactive); in the test on HCT-15, 79.6 µM; with HOP-62, > 100 µM (inactive); in the test with HT-29, 23.6 µM (inactive); with Hs-578T, > 100 µM (inactive); in the test on K562, 32.1 µM (inactive). In addition, the GI50 with MCF7, with MDA-MB-435, in the test on NCI-H460, with NCI/ADR-RES, in the test with OVCAR-5 and in the test on OVCAR-8 was > 100 µM (inactive) each time. Also, the GI50 with PC-3 was > 100 µM (inactive); in the test on SF-539 it was > 100 µM (inactive); in the test with SK-MEL-5, 48.4 µM (inactive); in the test on SK-OV-3 it was > 100 µM (inactive); with SN12C it was > 100 µM (inactive); with SNB-19, > 100 µM (inactive). Moreover, the GI50 in the test with SW-620 and in the test with UACC-62 was > 100 µM (inactive) each time.
For `CC1=CC[C@](C)(O)[C@@]2(C)CC[C@H]3C(=C(C)C)C(=O)C[C@]3(C)C[C@H]12`, the GI50 is 14.1 µM (inactive) in the test on HCT-116; 12.3 µM with HCT-15; 42.2 µM (inactive) in the test on HOP-62; 24.8 µM (inactive) with HT-29; 38.2 µM (inactive) in the test on Hs-578T; 9.2 µM (inactive) in the test on K562. Besides, the GI50 in the test with MCF7 was 31.3 µM (inactive); in the test on MDA-MB-435, 18.7 µM (inactive); with NCI/ADR-RES, 16.5 µM (inactive); in the test on OVCAR-5, > 50 µM (inactive); in the test on OVCAR-8 it was 29.2 µM (inactive); in the test on PC-3, 21.4 µM (inactive). Further, the GI50 is > 50 µM (inactive) in the test on SF-539; 27.8 µM (inactive) with SK-MEL-5; > 50 µM (inactive) with SK-OV-3; 34.8 µM (inactive) in the test on SN12C; > 50 µM (inactive) in the test with SNB-19; 27 µM (inactive) in the test on SW-620. In the test on UACC-62, the GI50 is 11.9 µM (inactive).
Take `C=C(C)C1CC2(C)C(C)CC(O)CC2C(OC(=O)C=C(C)C)C1O` (stereo not drawn): the GI50 in the test on HCT-116 was 52.7 µM (inactive); in the test on HCT-15, 27.3 µM; with HT-29 it was 24.4 µM (inactive); in the test on Hs-578T, 27.1 µM (inactive); with K562 it was 32.8 µM (inactive); with MCF7 it was 29.6 µM (inactive). Moreover, the GI50 in the test with MDA-MB-435 was 38.1 µM (inactive); with NCI-H460, 22.8 µM (inactive); with NCI/ADR-RES, 30.5 µM (inactive); in the test with OVCAR-5, 31.3 µM (inactive); in the test on OVCAR-8, 40.6 µM (inactive); in the test on PC-3 it was 37.6 µM (inactive). For the same compound, the GI50 was 30.9 µM (inactive) in the test on SF-539; 19.2 µM (inactive) in the test on SK-MEL-5; 58.6 µM (inactive) in the test with SK-OV-3; 30.9 µM (inactive) in the test with SN12C; 22.2 µM (inactive) in the test with SNB-19; > 10 µM (inactive) in the test with SW-620. In the test on UACC-62, the GI50 is 71.9 µM (inactive).
